Data on one molecule can be found in US11369616B2, “Drug combination and its use in therapy” (Proximagen, LLC, priority 2016, dated 2022).

Type in all cases: in vivo, mice
One assay has as its system H22. Nature of the assay: Syngeneic subcutaneous tumour growth inhibition, H22 (Study 2). The note with it: Liver, H22, SDF-1 26 FPKM; 641 50 mg/kg p.o. 5 days out of 7; anti-PD1 10 mg/kg i.p. twice weekly for 3 weeks; vs vehicle group. As for the experimental part:
(§1) Four syngeneic cell lines (EMT-6, H22, CT26, B16F10small) were cultured and when in exponential growth were inoculated in mice subcutaneously with tumour cells in 0.1 mL of PBS for tumour development. After the mean tumour size reached approximately 80-120 mm^3 the mice were treated with anti-PD1 antibody (clone RMP1-14) (10 mg/kg i.p. twice weekly for 3 weeks) or 6-{4-[1-(Propan-2-yl)piperidin-4-yl]-1,4-diazepan-1-yl}-N-(pyridin-4-yl)pyridine-2-carboxamide (50 mg/kg p.o. 5 days out of 7), or a combination of the two treatments. Tumour volumes were measured twice weekly at least in two dimensions using a caliper, and the volume expressed in mm^3 using the formula: V=0.5 a×b^2 where a and b are the long and short diameters of the tumour, respectively. Tumour growth was measured and inhibition of tumour growth reported in comparison to a vehicle treated group. All groups contained 8 mice. If the tumours in a group reached an average volume of 2000 mm^3, the experiment was terminated.
(§2) SDF-1 levels were measured by RNA sequencing and are expressed as fragments read per million mapped reads per kilobase of transcript (FPKM). FPKM is normalised to all the fragments read and to the length of the genes, and so is in effect a ratio of the number of SDF-1 reads to all the other genes read multiplied by one million.

For another assay, the system named is B16F10 small. Nature of the assay: Syngeneic subcutaneous tumour growth inhibition, B16F10 small (Study 2). The note with it: Melanoma, SDF-1 4 FPKM, 641 50 mg/kg p.o. 5 days out of 7, anti-PD1 10 mg/kg i.p. twice weekly for 3 weeks, vs vehicle group. As for the experimental part: as §1, §2
A further assay has as its system CT26. Briefly: Syngeneic subcutaneous tumour growth inhibition, CT26 (Study 2). The conditions noted are these: Colorectal, CT26, SDF-1 17 FPKM; 641 50 mg/kg p.o. 5 days out of 7; anti-PD1 10 mg/kg i.p. twice weekly for 3 weeks; vs vehicle group. As for the experimental part: as §1, §2
The test system of the next assay is EMT6. Briefly: Syngeneic subcutaneous tumour growth inhibition, EMT6 (Study 2). The note with it: Breast, EMT6, SDF-1 42 FPKM; 641 50 mg/kg p.o. 5 days out of 7; anti-PD1 10 mg/kg i.p. twice weekly for 3 weeks; vs vehicle group. As for the experimental part:
as §1, §2

The structures appear in SMILES notation.

As to `CC(C)N1CCC(N2CCCN(c3cccc(C(=O)Nc4ccncc4)n3)CC2)CC1` [compound 641, 6-{4-[1-(Propan-2-yl)piperidin-4-yl]-1,4-diazepan-1-yl}-N-(pyridin-4-yl)pyridine-2-carboxamide], the “% inhibition of tumour growth relative to control” value was 20.1% in the assay on H22, 0% with B16F10 small, 32.1% in the assay on CT26 and 79.8% in the assay on EMT6.
